One may read the IC50 as the point on the concentration scale where inhibition reaches its midpoint. Usually EC50 stands for the concentration that produces a half-maximal response.

The target of test [1] is T1, MK2 (Homo sapiens (Human), UniProt P49137). Particulars: percentage of modified protein after 60 minutes at room temperature, 10-fold excess of compound; MALDI (I-1 to I-50), magnetic bead MALDI (I-51 to I-129).
Experimental: Aliquots of the resulting mixture (6 μL each) were diluted with 0.2% trifluoroacetic acid (TFA, 10 μL) prior to micro C4 ZipTipping directly onto the MALDI target using sinapinic acid as the desorption matrix (10 mg/ml in 0.1% TFA:acetonitrile 50:50, v/v). The centroid mass of the target protein in the control sample was compared with the centroid mass of the target protein incubated with compound. A shift in the centroid mass of the treated protein compared to the untreated protein was divided by the molecular weight of the compound. This number corresponds to the percentage of modified protein (a measure of the proportion of total target protein covalently bound to the test compound) after one hour incubation.
3 μL of magnetic Ni-NTA beads were added to the 6 μL aliquots of sample, washed, eluted with 0.2% trifluoroacetic acid (TFA, 2 μL), and spotted directly onto the MALDI target using sinapinic acid as the desorption matrix (10 mg/ml in 0.1% TFA:acetonitrile 50:50, v/v). The centroid mass of the target protein in the control sample was compared with the centroid mass of the target protein incubated with compound. A shift in the centroid mass of the treated protein compared to the untreated protein was divided by the molecular weight of the compound. This number corresponds to the percentage of modified protein (a measure of the proportion of total target protein covalently bound to the test compound) after one hour incubation.
The target of test [2] is p38α activated, mitogen-activated protein kinase-activated protein kinase 2 (MAPKAP-K2 or MK2) enzyme (Homo sapiens (Human), UniProt P49137). The test is described as follows: MK2 Omnia continuous-read kinase assay for compound potency. The test is classed as biochemical. Summed up: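 Activated MK2 (0.4 nM) was run with S/T3-Sox peptide and ATP, each at 10 μM (ATP at apparent KM), and Sox fluorescence was followed every 71 s for 2 h at room temperature. IC50 came from linear initial rates after no-enzyme subtraction, and apparent kinact/KI from kobs of single-exponential fits.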
p38α activated, mitogen-activated protein kinase-activated protein kinase 2 (MAPKAP-K2 or MK2) enzyme, sequence (P49137 whole entry): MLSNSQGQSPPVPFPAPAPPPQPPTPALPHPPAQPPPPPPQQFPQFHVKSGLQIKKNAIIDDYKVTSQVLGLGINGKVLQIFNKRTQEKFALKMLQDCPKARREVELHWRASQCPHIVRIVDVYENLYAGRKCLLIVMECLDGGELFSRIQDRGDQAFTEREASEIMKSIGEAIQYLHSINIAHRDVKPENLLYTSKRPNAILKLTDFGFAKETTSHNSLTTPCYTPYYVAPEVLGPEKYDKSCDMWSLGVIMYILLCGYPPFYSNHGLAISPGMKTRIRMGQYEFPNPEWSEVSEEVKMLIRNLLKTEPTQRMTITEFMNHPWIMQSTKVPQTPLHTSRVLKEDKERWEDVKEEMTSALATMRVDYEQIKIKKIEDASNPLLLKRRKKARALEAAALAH

Test [3] has as its target T1, MK2. The test can be described thus: MK2 cellular assay, total and phospho-Hsp27 (Serine 78) by MSD ELISA (Thp1). The test is classed as cell-based. Summed up:
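PMA-differentiated (10 ng/mL, 72 h) Thp-1 cells were pretreated with compound (top 3000 nM) for 1 h at 37 °C, then stimulated with 50 ng/mL LPS for 45 min. Lysate phospho-Hsp27 (Ser78) and total Hsp27 were read by MSD electrochemiluminescence ELISA, and the value is expressed as percent phospho/total signal per well.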
(An ELISA detects its analyte on a solid surface through an enzyme-linked reagent.)

[4] abbreviates: [MK-2]=0.4 nM, [ATP]=10 μM, [ST3-Sox]=10 μM, read-out: MK2 IC50.
[5] abbreviates: Thp-1 cells, 1 hour compound, 50 ng/mL LPS 45 minutes, p-HSP27 (Ser78)/total HSP27, read-out: pHSP27 signaling EC50.

Like-named read-outs stand apart in the source and are kept apart here.
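For Mass Modification in this document: covalent binding read from centroid mass shift of compound-treated versus untreated intact MK2, shift divided by compound molecular weight, giving fraction of total protein bound.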

T1 sequence (P49137 whole entry): as above

Turning to `C[C@@H]1CNc2c(sc3ccc4nc(Oc5nc(Cl)ncc5CN5CCC(OCCF)CC5)ccc4c23)C(=O)N1` [I-131, (R)-3-((2-chloro-5-((4-(2-fluoroethoxy)piperidin-1-yl)methyl)pyrimidin-4-yl)oxy)-10-methyl-9,10,11,12-tetrahydro-8H-[1,4]diazepino[5′,6′:4,5]thieno[3,2-f]quinolin-8-one], at MK2 [1], the “Mass Modification” value is “E (mass modification of ≧70%)”. For the same compound, the half-inhibitory concentration (IC50) in test [2] (setting [4]) is below 100 nM. Further, the EC50 at MK2 [3] (setting [5]) was below 100 nM.
As to `C[C@@H]1CNc2c(sc3ccc4nc(Nc5nc(F)cc(OC6COC6)n5)ccc4c23)C(=O)N1` [I-42, (R)-3-((4-fluoro-6-(oxetan-3-yloxy)pyrimidin-2-yl)amino)-10-methyl-9,10,11,12-tetrahydro-8H-[1,4]diazepino[5′,6′:4,5]thieno[3,2-f]quinolin-8-one], on MK2 [1], the “Mass Modification” value was “G (mass modification ≦30%)”. The IC50 in test [2] (setting [4]) was below 100 nM. The compound further registered an EC50 at MK2 [3] of 501 to 999 nM.
Take `C[C@@H]1CNc2c(sc3ccc4nc(Nc5cc(F)nc(CN6CCN(C)CC6)n5)ccc4c23)C(=O)N1` [I-73, (R)-3-((6-fluoro-2-((4-methylpiperazin-1-yl)methyl)pyrimidin-4-yl)amino)-10-methyl-9,10,11,12-tetrahydro-8H-[1,4]diazepino[5′,6′:4,5]thieno[3,2-f]quinolin-8-one]: on MK2 [1], the “Mass Modification” value is “G (mass modification ≦30%)”. The IC50 in test [2] (setting [4]) was below 100 nM. For the same compound, on MK2 [3] (setting [5]), the EC50 was above 1000 nM.
Turning to `C[C@@H]1CNc2c(sc3ccc4nc(Nc5cc(Cl)nc(OCCN6CCN(C)CC6)n5)ccc4c23)C(=O)N1` [I-66, (R)-3-((6-chloro-2-(2-(4-methylpiperazin-1-yl)ethoxy)pyrimidin-4-yl)amino)-10-methyl-9,10,11,12-tetrahydro-8H-[1,4]diazepino[5′,6′:4,5]thieno[3,2-f]quinolin-8-one], at MK2 [1], the “Mass Modification” value is recorded as “F (mass modification of 31-69%)”. The IC50 in test [2] (setting [4]) is below 100 nM. Also, the EC50 on MK2 [3] (setting [5]) was in the range of 101 to 500 nM.
In the case of `C[C@@H]1CNc2c(sc3ccc4nc(Oc5nc(Cl)ncc5C5=CCN(C)CC5)ccc4c23)C(=O)N1` [I-122], at MK2 [1], the “Mass Modification” value is on record as “E (mass modification of ≧70%)”. For the same compound, the 50% inhibitory concentration (IC50) in test [2] (setting [4]) was below 100 nM. Besides, the 50% effective concentration (EC50) at MK2 [3] (setting [5]) was 101 to 500 nM.
`C[C@@H]1CNc2c(sc3ccc4nc(Oc5ccnc(Cl)n5)ccc4c23)C(=O)N1` [I-53, (R)-3-((2-chloropyrimidin-4-yl)oxy)-10-methyl-9,10,11,12-tetrahydro-8H-[1,4]diazepino[5′,6′:4,5]thieno[3,2-f]quinolin-8-one]: the “Mass Modification” value on MK2 [1] was “F (mass modification of 31-69%)”. In test [2] (setting [4]), the IC50 is below 100 nM. The EC50 at MK2 [3] (setting [5]) lay within 101 to 500 nM.
The corresponding values for `C[C@@H]1CNc2c(sc3ccc4nc(Oc5nc(Cl)ncc5Br)ccc4c23)C(=O)N1` [I-116, (R)-3-((5-bromo-2-chloropyrimidin-4-yl)oxy)-10-methyl-9,10,11,12-tetrahydro-8H-[1,4]diazepino[5′,6′:4,5]thieno[3,2-f]quinolin-8-one] are “E (mass modification of ≧70%)”, below 100 nM and below 100 nM.
As for `O=C1N[C@H](CO)CNc2c1sc1ccc3nc(Nc4cc(Cl)ncn4)ccc3c21` [I-22, (S)-3-((6-chloropyrimidin-4-yl)amino)-10-(hydroxymethyl)-9,10,11,12-tetrahydro-8H-[1,4]diazepino[5′,6′:4,5]thieno[3,2-f]quinolin-8-one], on MK2 [1], the “Mass Modification” value is “F (mass modification of 31-69%)”. Besides, the concentration for half-maximal inhibition (IC50) in test [2] (setting [4]) is below 100 nM. The EC50 at MK2 [3] (setting [5]) is 501 to 999 nM.
In the case of `COCCN(C)Cc1cnc(Cl)nc1Oc1ccc2c(ccc3sc4c(c32)NC[C@@H](C)NC4=O)n1` [I-90, (R)-3-((2-chloro-5-(((2-methoxyethyl)(methyl)amino)methyl)pyrimidin-4-yl)oxy)-10-methyl-9,10,11,12-tetrahydro-8H-[1,4]diazepino[5′,6′:4,5]thieno[3,2-f]quinolin-8-one], the “Mass Modification” value at MK2 [1] is recorded as “E (mass modification of ≧70%)”. The IC50 in test [2] (setting [4]) was 101 to 500 nM. On MK2 [3] (setting [5]), the concentration for a half-maximal effect (EC50) was below 100 nM.
In the case of `C[C@@H]1CNc2c(sc3ccc4nc(Nc5cc(Cl)nc(OC6CCCN(C)C6)n5)ccc4c23)C(=O)N1` (stereo partly drawn) [I-59, (10R)-3-((6-chloro-2-((1-methylpiperidin-3-yl)oxy)pyrimidin-4-yl)amino)-10-methyl-9,10,11,12-tetrahydro-8H-[1,4]diazepino[5′,6′:4,5]thieno[3,2-f]quinolin-8-one], the “Mass Modification” value at MK2 [1] is given as “E (mass modification of ≧70%)”. Moreover, in test [2] (setting [4]), the half-inhibitory concentration (IC50) was below 100 nM. At MK2 [3] (setting [5]), the EC50 lay in the range of 501 to 999 nM.
In the same order, the values of `NC[C@@H]1CNc2c(sc3ccc4nc(Nc5cc(F)ncn5)ccc4c23)C(=O)N1` [I-26, (R)-10-(aminomethyl)-3-((6-fluoropyrimidin-4-yl)amino)-9,10,11,12-tetrahydro-8H-[1,4]diazepino[5′,6′:4,5]thieno[3,2-f]quinolin-8-one] are “E (mass modification of ≧70%)”, below 100 nM and above 1000 nM.
The corresponding values for `C[C@@H]1CNc2c(sc3ccc4nc(Oc5nc(Cl)ncc5CN5CC6CC6C5)ccc4c23)C(=O)N1` (stereo partly drawn) [I-83, ((1OR)-3-((5-(3-azabicyclo[3.1.0]hexan-3-yl)methyl)-2-chloropyrimidin-4-yl)oxy)-10-methyl-9,10,11,12-tetrahydro-8H-[1,4]diazepino[5′,6′:4,5]thieno[3,2-f]quinolin-8-one] are “E (mass modification of ≧70%)”, 101 to 500 nM and below 100 nM.
The corresponding values for `C[C@@H]1CNc2c(sc3ccc4nc(Oc5cc(Cl)ncn5)ccc4c23)C(=O)N1` [I-56, (R)-3-((6-chloropyrimidin-4-yl)oxy)-10-methyl-9,0,11,12-tetrahydro-8H-[1,4]diazepino[5′,6′:4,5]thieno[3,2-f]quinolin-8-one] are “E (mass modification of ≧70%)”, below 100 nM and below 100 nM.
On to `C[C@@H]1CNc2c(sc3ccc4nc(Oc5nc(Cl)ncc5CN5CC6CC(C6)C5)ccc4c23)C(=O)N1` [I-85, (R)-3-((5-((3-azabicyclo[3.1.1]heptan-3-yl)methyl)-2-chloropyrimidin-4-yl)oxy)-10-methyl-9,10,11,12-tetrahydro-8H-[1,4]diazepino[5′,6′:4,5]thieno[3,2-f]quinolin-8-one], for which, at MK2 [1], the “Mass Modification” value was “E (mass modification of ≧70%)”. Further, the IC50 in test [2] was 101 to 500 nM. The compound also returned an EC50 on MK2 [3] below 100 nM.
For the compound `COCc1nc(Cl)cc(Oc2ccc3c(ccc4sc5c(c43)NC[C@@H](C)NC5=O)n2)n1` [I-57, (R)-3-((6-chloro-2-(methoxymethyl)pyrimidin-4-yl)oxy)-10-methyl-9,10,11,12-tetrahydro-8H-[1,4]diazepino[5′,6′:4,5]thieno[3,2-f]quinolin-8-one], the “Mass Modification” value at MK2 [1] is given as “E (mass modification of ≧70%)”. In test [2] (setting [4]), the concentration for half-maximal inhibition (IC50) is below 100 nM. On MK2 [3] (setting [5]), the EC50 was below 100 nM.
Take `C[C@@H]1CNc2c(sc3ccc4nc(Oc5nc(Cl)nc(N6CCCCC6)n5)ccc4c23)C(=O)N1` [I-64, (R)-3-((4-chloro-6-(piperidin-1-yl)-1,3,5-triazin-2-yl)oxy)-10-methyl-9,10,11,12-tetrahydro-8H-[1,4]diazepino[5′,6′:4,5]thieno[3,2-f]quinolin-8-one]: the “Mass Modification” value on MK2 [1] is “E (mass modification of ≧70%)”. Further, the half-inhibitory concentration (IC50) in test [2] (setting [4]) is below 100 nM. The half-maximal effective concentration (EC50) at MK2 [3] (setting [5]) was above 1000 nM.
Regarding `COCCOc1nc(F)cc(Nc2ccc3c(ccc4sc5c(c43)NC[C@@H](C)NC5=O)n2)n1` [I-44, (R)-3-((6-fluoro-2-(2-methoxyethoxy)pyrimidin-4-yl)amino)-10-methyl-9,10,11,12-tetrahydro-8H-[1,4]diazepino[5′,6′:4,5]thieno[3,2-f]quinolin-8-one], the “Mass Modification” value on MK2 [1] is “G (mass modification ≦30%)”. Further, in test [2] (setting [4]), the half-inhibitory concentration (IC50) is below 100 nM. At MK2 [3], this compound showed a 50% effective concentration (EC50) of 101 to 500 nM.
With `C[C@@H]1CNc2c(sc3ccc4nc(Oc5nc(Cl)nc(N(C)C)n5)ccc4c23)C(=O)N1` [I-75, (R)-3-((4-chloro-6-(dimethylamino)-1,3,5-triazin-2-yl)oxy)-10-methyl-9,10,11,12-tetrahydro-8H-[1,4]diazepino[5′,6′:4,5]thieno[3,2-f]quinolin-8-one], the “Mass Modification” value at MK2 [1] was “E (mass modification of ≧70%)”. The 50% inhibitory concentration (IC50) in test [2] (setting [4]) was below 100 nM. In addition, the EC50 at MK2 [3] (setting [5]) was below 100 nM.
Consider `NC[C@@H]1CNc2c(sc3ccc4nc(Nc5cc(Cl)ncn5)ccc4c23)C(=O)N1` [I-28, (R)-10-(aminomethyl)-3-((6-chloropyrimidin-4-yl)amino)-9,10,11,12-tetrahydro-8H-[1,4]diazepino[5′,6′:4,5]thieno[3,2-f]quinolin-8-one], for which, on MK2 [1], the “Mass Modification” value was “E (mass modification of ≧70%)”. Also, the IC50 in test [2] (setting [4]) is below 100 nM. Besides, the EC50 at MK2 [3] (setting [5]) is above 1000 nM.
For `C[C@@H]1CNc2c(sc3ccc4nc(Nc5cc(Cl)nc(O[C@@H]6CCN(C)C6)n5)ccc4c23)C(=O)N1` [I-60, (R)-3-((6-chloro-2-(((R)-1-methylpyrrolidin-3-yl)oxy)pyrimidin-4-yl)amino)-10-methyl-9,10,11,12-tetrahydro-H-[1,4]diazepino[5′,6′:4,5]thieno[3,2-f]quinolin-8-one], the “Mass Modification” value at MK2 [1] was “F (mass modification of 31-69%)”. Moreover, the IC50 in test [2] (setting [4]) was below 100 nM. The EC50 on MK2 [3] (setting [5]) was in the range of 101 to 500 nM.
